Assay results from US6777422B2, “Substituted tetrahydroisoquinolines as C5a receptor modulators” (Neurogen Corp., priority 2002, dated 2004).

Target: T1, human C5a receptor (Homo sapiens, UniProt P21730)
T1 construct: endogenous in cells; host or cells: U937 cells differentiated with 1 mM dibutyryl cAMP
T1 sequence (P21730 1-350): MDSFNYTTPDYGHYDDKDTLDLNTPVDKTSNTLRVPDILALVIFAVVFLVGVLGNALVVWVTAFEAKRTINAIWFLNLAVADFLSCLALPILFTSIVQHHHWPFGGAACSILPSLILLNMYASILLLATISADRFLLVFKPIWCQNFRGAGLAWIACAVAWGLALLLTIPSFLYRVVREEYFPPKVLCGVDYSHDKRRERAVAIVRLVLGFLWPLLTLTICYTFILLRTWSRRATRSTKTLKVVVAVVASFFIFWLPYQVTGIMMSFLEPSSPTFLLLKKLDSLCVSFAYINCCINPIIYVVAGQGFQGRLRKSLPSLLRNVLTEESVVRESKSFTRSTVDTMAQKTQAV
Test: C5a receptor mediated calcium mobilization assay (Example 20)
Format: cell-based
Details: differentiated U937 cells, read-out: Ca2+ (Ki in the standard assay of C5a receptor mediated calcium mobilization)
Protocol: Calcium Mobilization Assays
U937 cells are grown in differentiation media (1 mM dibutyryl cAMP in RPMI 1640 medium containing 10% fetal bovine serum) for 48 hrs at 37° C. then reseeded onto 96-well plates suitable for use in a FLIPR™ Plate Reader (Molecular Devices Corp., Sunnyvale Calif.). Cells are grown an additional 24 hours (to 70-90% confluence) before the assay. The cells are then washed once with Krebs Ringer solution. FLUO-3 calcium sensitive dye (Molecular Probes, Inc. Eugene, Oreg.) is added to 10 μg/mL and incubated with the cells at room temperature for 1 to 2 hours. The 96 well plates are then washed to remove excess dye. Fluorescence responses, measured by excitation at 480 nm and emission at 530 nm, are monitored upon the addition of human C5a to the cells to a final concentration of 0.01-30.0 nM, using the FLIPR™ device (Molecular Devices).
C. Assays for the Identification of Receptor Modulatory Agents: Antagonists and Agonists
The calcium mobilization assay described above may be readily adapted for identifying test compounds that have agonist or antagonist activity at the human C5a receptor.
For example, in order to identify antagonist compounds, differentiated U937 cells are washed and incubated with Fluo-3 dye as described above. One hour prior to measuring the fluorescence signal, a subset of the cells is incubated with 1 μM of at least one compound to be tested. The fluorescence response upon the subsequent addition of 0.3 nM (final concentration) human recombinant C5a is monitored using the FLIPR™ plate reader. Antagonist compounds elicit at least a 2-fold decrease in the fluorescence response relative to that measured in the presence of human C5a alone. Preferred antagonist compounds elicit at least a 5-fold, preferably at least a 10-fold, and more preferably at least a 20-fold decrease in the fluorescence response relative to that measured in the presence of human C5a alone.

Compound | Ki [µM]
Cc1ccc(Cl)cc1[C@@H]1c2ccccc2CCN1CC(=O)N(Cc1ccccc1F)C1Cc2ccccc2C1 (stereo in doubt) [Compound 51, 2-[1-(5-chloro-2-methylphenyl)-3,4-dihydroisoquinolin-2(1H)-yl]-N-(indan-2-yl)-N-(2-fluorobenzyl)acetamide] | < 1
Cc1ccc(Cl)c([C@@H]2c3ccccc3CCN2CC(=O)N(Cc2ccccc2F)C2Cc3ccccc3C2)c1 (stereo in doubt) [Compound 52, 2-[1-(2-chloro-5-methylphenyl)-3,4-dihydroisoquinolin-2(1H)-yl]-N-(indan-2-yl)-N-(2-fluorobenzyl)acetamide] | < 1
Cc1ccccc1[C@@H]1c2c(ccc(C)c2C)CCN1CC(=O)N(Cc1ccccc1F)C1Cc2ccccc2C1 (stereo in doubt) [Compound 73, N-(indan-2-yl)-2-[7,8-dimethyl-1-(2-methylphenyl)-3,4-dihydroisoquinolin-2(1H)-yl]-N-(2-fluorobenzyl)acetamide] | < 1
Cc1ccccc1[C@@H]1c2c(C)cccc2CCN1CC(=O)N(Cc1ccccc1F)C1Cc2ccccc2C1 (stereo in doubt) [Compound 78, N-(indan-2-yl)-N-(2-fluorobenzyl)-2-[8-methyl-1-(2-methylphenyl)-3,4-dihydroisoquinolin-2(1H)-yl]acetamide] | < 1
COc1cccc2c1C(c1ccccc1C)N(CC(=O)N(Cc1ccccc1F)C1Cc3ccccc3C1)CC2 (centres unmarked) [Compound 14, N-(indan-2-yl)-N-(2-fluorobenzyl)-2-[8-methoxy-1-(2-methylphenyl)-3,4-dihydroisoquinolin-2(1H)-yl]acetamide] | < 1
CCC1(c2ccccc2C)c2ccccc2CCN1CC(=O)N(Cc1ccccc1F)C1Cc2ccccc2C1 (centres unmarked) [Compound 16, N-(indan-2-yl)-2-[1-ethyl-1-(2-methylphenyl)-3,4-dihydroisoquinolin-2(1H)-yl]-N-(2-fluorobenzyl)acetamide] | < 1
COc1ccccc1C1c2ccccc2CCN1CC(=O)N(Cc1ccccc1F)C1Cc2ccccc2C1 (centres unmarked) [Compound 24, N-(indan-2-yl)-N-(2-fluorobenzyl)-2-[1-(2-methoxyphenyl)-3,4-dihydroisoquinolin-2(1H)-yl]acetamide] | < 1
Cc1cccc(C2c3ccccc3CCN2CC(=O)N(Cc2ccccc2F)C2Cc3ccccc3C2)c1C (centres unmarked) [Compound 25, N-(indan-2-yl)-2-[1-(2,3-dimethylphenyl)-3,4-dihydroisoquinolin-2(1H)-yl]-N-(2-fluorobenzyl)acetamide] | < 1
Cc1ccccc1[C@@H]1c2ccccc2CCN1CC(=O)N(Cc1ccccc1F)C1Cc2ccccc2C1 [Compound 26, N-(indan-2-yl)-N-(2-fluorobenzyl)-2-[(1R)-1-(2-methylphenyl)-3,4-dihydroisoquinolin-2(1H)-yl]acetamide] | < 1
Cc1ccccc1C1c2ccccc2[C@@H](C)CN1CC(=O)N(Cc1ccccc1F)C1Cc2ccccc2C1 (stereo partly drawn) [Compound 27, N-(indan-2-yl)-N-(2-fluorobenzyl)-2-[(4R)-4-methyl-1-(2-methylphenyl)-3,4-dihydroisoquinolin-2(1H)-yl]acetamide] | < 1
CCc1ccccc1C1c2ccccc2CCN1CC(=O)N(Cc1ccccc1F)C1Cc2ccccc2C1 (centres unmarked) [Compound 29, N-(indan-2-yl)-2-[1-(2-ethylphenyl)-3,4-dihydroisoquinolin-2(1H)-yl]-N-(2-fluorobenzyl)acetamide] | < 1
Cc1ccccc1C1c2ccccc2CCN1Cc1cnc(-c2ccccc2)n1C1Cc2ccccc2C1 (centres unmarked) [Compound 33, 2-{[1-(indan-2-yl)-2-phenyl-1H-imidazol-5-yl]methyl}-1-(2-methylphenyl)-1,2,3,4-tetrahydroisoquinoline] | < 1
Cc1ccc(C2c3ccccc3CCN2CC(=O)N(Cc2ccccc2F)C2Cc3ccccc3C2)cc1C (centres unmarked) [Compound 35, N-(indan-2-yl)-2-[1-(3,4-dimethylphenyl)-3,4-dihydroisoquinolin-2(1H)-yl]-N-(2-fluorobenzyl)acetamide] | < 1
O=C(CN1CCc2ccccc2C1c1ccc(F)cc1C(F)(F)F)N(Cc1ccccc1F)C1Cc2ccccc2C1 (centres unmarked) [Compound 37, N-(indan-2-yl)-N-(2-fluorobenzyl)-2-[1-[4-fluoro-2-(trifluoromethyl)phenyl]-3,4-dihydroisoquinolin-2(1H)-yl]acetamide] | < 1
O=C(CN1CCc2ccccc2C1c1cc(F)ccc1C(F)(F)F)N(Cc1ccccc1F)C1Cc2ccccc2C1 (centres unmarked) [Compound 38, N-(indan-2-yl)-N-(2-fluorobenzyl)-2-[1-[5-fluoro-2-(trifluoromethyl)phenyl]-3,4-dihydroisoquinolin-2(1H)-yl]acetamide] | < 1

Further lines, results first:

Ki [µM] | Compound
< 1 | Cc1ccccc1[C@@H]1c2ccccc2CCN1[C@@H](C)C(=O)N(Cc1ccccc1F)C1Cc2ccccc2C1 (relative stereo) [Compound 19, N-(indan-2-yl)-N-(2-fluorobenzyl)-2-[1-(2-methylphenyl)-3,4-dihydroisoquinolin-2(1H)-yl]propanamide]
< 1 | O=C(CN1CCc2ccccc2[C@H]1c1ccccc1Br)N(Cc1ccccc1F)C1Cc2ccccc2C1 (stereo in doubt) [Compound 22, 2-[1-(2-bromophenyl)-3,4-dihydroisoquinolin-2(1H)-yl]-N-(indan-2-yl)-N-(2-fluorobenzyl)acetamide]
< 1 | Cc1ccccc1C1c2ccccc2CCN1CC(=O)N(Cc1ccccc1F)C1Cc2ccccc2C1 (stereo in doubt) [Compound 28, N-(indan-2-yl)-N-(2-fluorobenzyl)-2-[(1S)-1-(2-methylphenyl)-3,4-dihydroisoquinolin-2(1H)-yl]acetamide]
< 1 | Cc1ccccc1C1c2ccccc2[C@@H](C)CN1CC(=O)N(Cc1ccccc1F)C1Cc2ccccc2C1 (stereo in doubt) [Compound 30, N-(2-Fluoro-benzyl)-N-indan-2-yl-2-(4-methyl-1-o-tolyl-3,4-dihydro-1H-isoquinolin-2-yl)-acetamide]
< 1 | Cc1ccccc1[C@@H]1c2ccccc2CCN1[C@@H](C)C(=O)N(Cc1ccccc1F)C1Cc2ccccc2C1 (stereo in doubt) [Compound 34, (2S)-N-(indan-2-yl)-N-(2-fluorobenzyl)-2-[(1R)-1-(2-methylphenyl)-3,4-dihydroisoquinolin-2(1H)-yl]propanamide]
< 1 | O=C(CN1CCc2ccccc2[C@H]1c1cccc(Cl)c1Cl)N(Cc1ccccc1F)C1Cc2ccccc2C1 (stereo in doubt) [Compound 36, 2-[1-(2,3-dichlorophenyl)-3,4-dihydroisoquinolin-2(1H)-yl]-N-(indan-2-yl)-N-(2-fluorobenzyl)acetamide]
< 1 | Cc1ccccc1[C@H]1c2ccccc2CCN1[C@@H](C)C(=O)N(Cc1ccccc1F)C1Cc2ccccc2C1 (stereo in doubt) [Compound 39, (2S)-N-(indan-2-yl)-N-(2-fluorobenzyl)-2-[(1S)-1-(2-methylphenyl)-3,4-dihydroisoquinolin-2(1H)-yl]propanamide]
< 1 | Cc1ccccc1[C@@H]1c2ccccc2[C@@H](C)CN1CC(=O)N(Cc1ccccc1F)C1Cc2ccccc2C1 (stereo in doubt) [Compound 46, N-(indan-2-yl)-N-(2-fluorobenzyl)-2-[(1R,4R)-4-methyl-1-(2-methylphenyl)-3,4-dihydroisoquinolin-2(1H)-yl]acetamide]
< 1 | Cc1ccc(C)c([C@@H]2c3ccccc3CCN2CC(=O)N(Cc2ccccc2F)C2Cc3ccccc3C2)c1 (stereo in doubt) [Compound 49, N-(indan-2-yl)-2-[1-(2,5-dimethylphenyl)-3,4-dihydroisoquinolin-2(1H)-yl]-N-(2-fluorobenzyl)acetamide]

Same assay, conditions: differentiated U937 cells, unit inferred, read-out: Ca2+ (numeric value, C5a receptor mediated calcium mobilization)

Ki [µM] | Compound
0.0131 | Cc1ccccc1[C@@H]1C2=C(CCCC2)CCN1CC(=O)N(Cc1ccccc1F)C1Cc2ccccc2C1 (stereo in doubt) [Compound 131, N-(2-Fluoro-benzyl)-N-indan-2-yl-2-(1-o-tolyl-3,4,5,6,7,8-hexahydro-1H-isoquinolin-2-yl)-acetamide]
0.115 | Cc1ccccc1[C@@H]1CCCCN1[C@@H](C)C(=O)N(Cc1ccccc1F)C1Cc2ccccc2C1 (stereo in doubt) [Compound 132, N-(2-Fluoro-benzyl)-N-indan-2-yl-2-(2-o-tolyl-piperidin-1-yl)-propionamide]
